The values that follow come from patent publication US10422787B2, “System and method for single molecule detection” (ARIZONA BOARD OF REGENTS on behalf of ARIZONA STATE …, priority 2015, dated 2019).

The subject of the experiment is cyclic RGD peptide. In words: STM break-junction measurement, Pd probe and substrate functionalized with cyclic RGD peptide. The format is binding. The note with it: for event frequency, of all retractions: 10 nM protein, Vt=0.2V. The protocol:
A Pd wire probe, etched to a sharp point and insulated to within a few hundred nm of its apex was used in an Agilent PicoSPM together with a Pd-coated substrate as described elsewhere. […] Probes and substrates were functionalized with cyclic RGD peptide (inset FIG. 14B) as described in Methods. Measurements were carried out in 1 mM phosphate buffer (pH=7.4) with the potential of the substrate controlled at a voltage Vr with respect to an Ag/AgCl reference. […] Integrin itself is electrochemically-inert, but the Pd surface has a rich electrochemistry. Cyclic voltammetry of a Pd surface functionalized with cyclic RGD peptide is shown in FIG. 14B, where a prominent cathodic peak (“HA”) is associated with hydrogen adsorption. […] In order to avoid both this cathodic peak and the onset of Pd oxidation at positive potentials, both electrodes were kept at potentials between 0 and 0.5V vs Ag/AgCl. The STM gap was set to an initial current of 4 pA ([…] conductance at Vt=0.2V, corresponding to a distance, Z0, of about 2 nm) and the probe was then slowly (0.17 nm/s) retracted. The tunnel current decayed rapidly (˜0.2 nm decay length—inset in FIG. 14E) in buffer alone. […] Many current points for αvβ3, exceed 0.1 nA (i.e., conductances >0.5 nS) at distances Z0+ΔZ>3 nm (FIG. 15A). Clearly these currents cannot arise from a tunneling process with β˜0.87 Å^−1 for which G0·e^−βx yields values smaller than 10^−16 S.
Table 1 summarizes the frequency with which these large current pulses are observed in STM measurements, showing also the effect of increasing bias. Large current events are barely seen below 0.1V, their frequency rising with increasing bias above this threshold. The experiments were repeated without a reference electrode, finding essentially identical results over the range of 0.1 to 0.5V (Table 1) presumably because the large-area substrate used in the STM experiments serves to stabilize surface potential somewhat.
The fraction in parenthesis corresponds to events that overflowed the current limit of the amplifier (11 nA). 0.5V bias approaches the potential for surface oxide formation of the Pd, but no significant oxidation currents were observed.
Functionalizing STM probes and substrates: The STM probes were etched from a 0.25 mm Pd wire (California Fine Wires) by an AC electrochemical etching method, and then insulated with high-density polyethylene, leaving an open apex of a few tens of nanometers in diameter. Before use, the probes were tested in 1 mM phosphate buffer (pH=7.4) at 0.5 V bias to ensure that the leakage current was <1 pA. For functionalization, the probe was gently cleaned using ethanol and water, respectively, and then dried with nitrogen flow. The probe was immersed in a 0.5 mg/mL peptide solution for ˜20 h. After that, the probe was taken out, rinsed with water, dried with nitrogen gas, and used immediately. Palladium substrates were prepared by depositing a 100 nm palladium film onto a 10 nm titanium adhesion layer coated onto a 750 μm thick silicon wafer using an electron-beam evaporator (Lesker PVD 75). The substrate was annealed with a hydrogen flame immediately before being functionalized by the same method as that for probe. Fourier transform infrared (FTIR) spectroscopy was used to characterize the functionalization. Pd substrates were also treated by UV- Ozone cleaner and H2 gas reduction (to remove PdO).
STM Measurements: Break junction measurements were carried out with a PicoSPM scanning probe microscope (Agilent Technologies). The Teflon liquid cells were cleaned in Piranha solution and then sonicated in Milli-Q water three times (Note that: the Piranha is highly corrosive and must be handled with extreme care). The current set point was 4 pA. Different sample bias was applied to the substrate as required. For better surface charge control, an Ag/AgCl with a salt bridge (10 mM KCl) was connected to the substrate. […]

The mark [1] stands for this setting: Bias 0.1 V, Reference Ag/AgCl (0V).
[2] abbreviates: Bias 0.2 V, Reference Ag/AgCl (0V).
Where [3] appears, read: Bias 0.5 V, Reference Ag/AgCl (0V).
Setting [4] is: Bias 0.5 V, Reference None (substrate floating).
The mark [5] stands for this setting: many current points, at distances Z0+ΔZ>3 nm.

“α4β1: homologous, weakly-binding integrin protein used as a control”: the “event frequency, of all retractions” value is on record as 12%. Moreover, the “fraction of retractions that showed large current events” value under setting [1] turned out to be 0.01. Also, the “fraction of retractions that showed large current events” value (Bias 0.1 V, Reference None) came out at 0. Under setting [2], the “fraction of events that overflowed the current limit of the amplifier (11 nA)” value is 0 and the “fraction of retractions that showed large current events” value is recorded as 0.15. Where the note is “Bias 0.2 V, Reference None”, the “fraction of events that overflowed the current limit of the amplifier (11 nA)” value is given as 0 and the “fraction of retractions that showed large current events” value stood at 0.12. Under setting [3], the “fraction of events that overflowed the current limit of the amplifier (11 nA)” value is 0.01 and the “fraction of retractions that showed large current events” value is 0.3. Under setting [4], the “fraction of events that overflowed the current limit of the amplifier (11 nA)” value turned out to be 0 and the “fraction of retractions that showed large current events” value was found to be 0.24.

Consider “αvβ3: ~200 kD αVβ3 extracelluar domain of human integrin, target protein bound by cyclic RGD peptide”, for which the “event frequency, of all retractions” value is listed as 25%. Under setting [1], the “fraction of events that overflowed the current limit of the amplifier (11 nA)” value is 0 and the “fraction of retractions that showed large current events” value was determined as 0.07. Moreover, under “Bias 0.1 V, Reference None”, the “fraction of events that overflowed the current limit of the amplifier (11 nA)” value is given as 0 and the “fraction of retractions that showed large current events” value stood at 0.06. Further, under setting [2], the “fraction of events that overflowed the current limit of the amplifier (11 nA)” value is listed as 0.01 and the “fraction of retractions that showed large current events” value came out at 0.32. Also, under “Bias 0.2 V, Reference None”, the “fraction of events that overflowed the current limit of the amplifier (11 nA)” value turned out to be 0.03 and the “fraction of retractions that showed large current events” value worked out at 0.26. Besides, under setting [3], the “fraction of events that overflowed the current limit of the amplifier (11 nA)” value is on record as 0.2 and the “fraction of retractions that showed large current events” value is reported as 0.58. In addition, under setting [4], the “fraction of events that overflowed the current limit of the amplifier (11 nA)” value was determined as 0.09 and the “fraction of retractions that showed large current events” value is 0.56. In addition, under setting [5], the conductance is given as over 0.5 nS and the peak current entry was “exceed 0.1 nA”.
